In ChEMBL document CHEMBL3045613, “Effects of sublethal glyphosate rates on fresh market tomato” (Crop Prot, 2007):

Legend:
Assay type in all cases: organism-based
Design in all cases: scale not given: the % may be the effect or the level left
[1] = tested on: Solanum lycopersicum; assay: Phytotoxicity against Solanum lycopersicum (tomato) plant assessed as decrease in plant height at 150 mg/L applied 1 days prior to transplantation for 10 secs measured after 4 weeks relative to untreated-control; details: in vivo, other
[2] = tested on: Solanum lycopersicum; assay: Phytotoxicity against Solanum lycopersicum (tomato) plant assessed as decrease in plant height at 200 mg/L applied 1 days prior to transplantation for 10 secs measured after 4 weeks relative to untreated-control; details: in vivo
[3] = tested on: Solanum lycopersicum; assay: Phytotoxicity against Solanum lycopersicum (tomato) plant assessed as decrease in plant height at 100 mg/L applied 1 days prior to transplantation for 10 secs measured after 4 weeks relative to untreated-control; details: in vivo
[4] = tested on: Solanum lycopersicum; assay: Phytotoxicity against Solanum lycopersicum (tomato) plant assessed as decrease in plant height at 25 mg/L applied 1 days prior to transplantation for 10 secs measured after 4 weeks relative to untreated-control; details: in vivo
[5] = tested on: Solanum lycopersicum; assay: Phytotoxicity against Solanum lycopersicum (tomato) plant assessed as decrease in vigour at 150 to 200 mg/L applied 1 days prior to transplantation for 10 secs measured after 4 weeks relative to untreated-control; details: in vivo
[6] = tested on: Solanum lycopersicum; assay: Phytotoxicity against Solanum lycopersicum (tomato) plant assessed as decrease in vigour at 100 mg/L applied 1 days prior to transplantation for 10 secs measured after 4 weeks relative to untreated-control; details: in vivo
[7] = tested on: Solanum lycopersicum; assay: Phytotoxicity against Solanum lycopersicum (tomato) plant assessed as decrease in vigour at 50 mg/L applied 1 days prior to transplantation for 10 secs measured after 4 weeks relative to untreated-control; details: in vivo
[8] = tested on: Solanum lycopersicum; assay: Phytotoxicity against Solanum lycopersicum (tomato) plant assessed as decrease in vigour at 25 mg/L applied 1 days prior to transplantation for 10 secs measured after 4 weeks relative to untreated-control; details: in vivo
[9] = tested on: Solanum lycopersicum; assay: Phytotoxicity against Solanum lycopersicum (tomato) plant assessed as decrease in vigour at 100 mg/L applied 1 days prior to transplantation for 10 secs measured after 2 weeks relative to untreated-control; details: in vivo
[10] = tested on: Solanum lycopersicum; assay: Phytotoxicity against Solanum lycopersicum (tomato) plant assessed as decrease in vigour at 25 mg/L applied 1 days prior to transplantation for 10 secs measured after 2 weeks relative to untreated-control; details: in vivo
[11] = tested on: Solanum lycopersicum; assay: Phytotoxicity against Solanum lycopersicum (tomato) plant assessed as decrease in marketable yeild at 150 mg/L applied 1 days prior to transplantation for 10 secs measured after 4 weeks relative to untreated-control; details: in vivo
[12] = tested on: Solanum lycopersicum; assay: Phytotoxicity against Solanum lycopersicum (tomato) plant assessed as decrease in marketable yeild at 25 mg/L applied 1 days prior to transplantation for 10 secs measured after 4 weeks relative to untreated-control; details: in vivo

Compound: O=C(O)CNCP(=O)(O)O [GLYPHOSATE]
- Activity [1]: 72%
- Activity [2]: 75%
- Activity [3]: 65%
- Activity [4]: 29%
- Activity [5]: <= 15%
- Activity [6]: 58%
- Activity [7]: 36%
- Activity [8]: 36%
- Activity [9]: <= 50%
- Activity [10]: 78%
- Activity [11]: > 98%
- Activity [12]: 41%
